Laboratory results as given in PMC10997755, “Discovery of a small-molecule inhibitor that traps Polθ on DNA and synergizes with PARP inhibitors” (Nature Communications, 2024).
Values joined by “and” are separate entries in the source; they are usually repeats but may differ in a detail not shown here. Equal entries are not always repeated. “Also recorded” adds a separate entry of the source.

Columns and labels:
DLD1 BRCA2 -/- cells = assay: Clonogenic assay; type: cell-based; conditions: for average / percent suvival / replicate counts: vehicle, DLD1-BRCA2 null cells
Experimental: (§1) Cells were plated on six or twelve or twenty-four well plates. In six well plate, 1000 cells/ well of BRCA2 -/-, BRCA1 -/-, PALB2 mut and 500 cells/ well of wildtype pair was plated; In twelve well plate, 600 cells/ well of BRCA2 -/-, BRCA1 -/-, PALB2 mut and 400 cells/ well of wildtype pair was plated; In twenty-four well plate, 500 cells/ well of BRCA2 -/-, BRCA1 -/-, PALB2 mut and 300 cells/ well of wildtype pair was plated. For MEFs, 300 cells per well in six-well plate were seeded. The medium was replaced every 2 days until the colonies were ready for staining in 10–12 days. For staining: Medium was removed from plates, and cells were rinsed with PBS. Fixation was carried out with—Water: Ethanol: Acetic acid (5:4:1) for 30 min followed by staining of colonies with 0.5% crystal violet in Water: Ethanol (3:2) for 2 h at room temperature. The plates were rinsed with water and left for drying overnight at room temperature. Colonies were then counted and IC50 was calculated using results from 3 or more independent experiments. Response curves are shown as mean colony formation +/- S.E.M.
(§2) Data are expressed as mean ± SEM from at least 3 independent experiments with triplicates for each condition unless stated otherwise. When conducting comparison between two groups, two-tailed unpaired t-test was used. Significance was assumed at p < 0.05. Asterisks in the figures indicate significance, ^∗p < 0.05, ^∗∗p < 0.01, ^∗∗∗p < 0.001. Combenefit® software version 2.021 was used to perform synergy analyses for drug combinations between RTx-161 and PARPi. GraphPad Prism 9 software was used to calculate IC50.

[1] = Clonogenic assay, OLA with or without RTX-161 (Fig. 2 a; cell line not given); type: cell-based; conditions: vehicle, single experiments
DLD1 Parental cells = assay: Clonogenic assay; type: cell-based; conditions: Olaparib 1 μM, BRCA2-WT
Experimental: as §1

MDA-MB-231 cells = assay: Clonogenic assay; type: cell-based; conditions: Fig. 2f, vehicle (Rtx-161 zero)
Experimental: as §1, §2

Polθ-pol = target: T1, Polθ-pol (Homo sapiens, UniProt O75417); assay: Cy5 fluorescence Polθ-pol DNA synthesis (strand displacement) IC50 assay; type: biochemical; conditions: 5 nM PolQ, 18 min
T1 construct: purified recombinant human Polθ-pol (comprising amino acid residues 1792–2590); made in house
T1 sequence (O75417 1792-2590): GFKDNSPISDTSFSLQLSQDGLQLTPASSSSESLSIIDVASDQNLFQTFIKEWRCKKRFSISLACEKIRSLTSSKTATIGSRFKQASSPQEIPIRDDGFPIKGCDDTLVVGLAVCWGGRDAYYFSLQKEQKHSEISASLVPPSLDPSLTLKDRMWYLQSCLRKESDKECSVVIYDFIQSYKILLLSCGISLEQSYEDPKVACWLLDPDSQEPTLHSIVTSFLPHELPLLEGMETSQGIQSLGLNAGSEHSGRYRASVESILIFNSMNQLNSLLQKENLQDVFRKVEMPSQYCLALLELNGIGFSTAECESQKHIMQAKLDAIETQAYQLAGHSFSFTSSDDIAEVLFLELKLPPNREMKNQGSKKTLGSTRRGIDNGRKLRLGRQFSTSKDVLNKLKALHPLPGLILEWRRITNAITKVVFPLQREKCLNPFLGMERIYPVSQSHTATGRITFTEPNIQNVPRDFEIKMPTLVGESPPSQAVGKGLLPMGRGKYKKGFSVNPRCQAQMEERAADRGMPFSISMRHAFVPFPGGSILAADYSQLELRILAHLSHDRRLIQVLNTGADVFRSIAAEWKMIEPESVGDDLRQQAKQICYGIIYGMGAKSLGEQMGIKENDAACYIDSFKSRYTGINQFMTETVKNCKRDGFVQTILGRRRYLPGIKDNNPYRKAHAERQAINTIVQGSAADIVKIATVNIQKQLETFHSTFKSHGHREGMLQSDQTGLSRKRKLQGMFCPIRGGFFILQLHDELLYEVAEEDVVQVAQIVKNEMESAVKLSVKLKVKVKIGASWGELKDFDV
Experimental: The following Cy5 fluorescence assay was used to measure the ability of compounds to inhibit Polθ-pol in vitro. The fluorescent based assay was performed as follows: 60 nM of the pre-annealed primer-template containing a 5’ Cy5 fluorophore conjugated template strand (RP486-Cy5), a downstream complementary oligo conjugated with a 3’ Iowa BlackReg Dark quencher (RP343BHQRQ) and a primer strand (RP469D) was mixed with 50 uM 2'-deoxyribonucleoside triphosphates (dNTPs), 0.1 mg/mL Bovine serum albumin (BSA), 0.01% NP-40, 10% glycerol, 1 mM dithiothreitol (DTT), 10 mM MgCl2, 25 mM TrisHCl pH 7.8 in the presence of 2.5% DMSO with or without various concentrations (7-point dilution series) of Polθ-pol small-molecule inhibitors at 37 °C in a volume of 40 μL. The reactions were initiated by the addition of 5 nM of purified recombinant human Polθ-pol (comprising amino acid residues 1792–2590). The reactions were terminated by the addition of 20 mM EDTA after 18 min, and the Cy5 fluorescence intensity was measured using a CLARIOstar (BMG Labtech) plate reader. Reactions were performed in triplicate and the % inhibition at each concentration of the respective compound of Formula I was based on the mean.

## O=C(c1cc(Cc2n[nH]c(=O)c3ccccc23)ccc1F)N1CCN(C(=O)C2CC2)CC1 [OLA]
DLD1 BRCA2 -/- cells; OLA 3.125 nano M
  average: 100
  percent suvival: 96.463%
  replicate counts: 99 and 93 and 108
DLD1 BRCA2 -/- cells; OLA 6.25 nano M
  average: 86
  percent suvival: 82.9582%
  replicate counts: 84 and 95 and 79
DLD1 BRCA2 -/- cells; OLA 12.50 nano M
  average: 68.3333
  percent suvival: 65.9164%
  replicate counts: 64 and 72 and 69
DLD1 BRCA2 -/- cells; OLA 25.00 nano M
  average: 45.6667
  percent suvival: 44.0514%
  replicate counts: 49 and 40 and 48
DLD1 BRCA2 -/- cells; OLA 50.00 nano M
  average: 38
  percent suvival: 36.6559%
  replicate counts: 37 and 42 and 35
DLD1 BRCA2 -/- cells; OLA 100.00 nano M
  average: 20.3333
  percent suvival: 19.6141%
  replicate counts: 24 and 18 and 19
[1]; OLA 0.125 nano M
  percent suvival: 98.3333%
[1]; OLA 0.25 nano M
  percent suvival: 90.8333% and 74.269% and 96.7105%
[1]; OLA 0.5 nano M
  percent suvival: 67.8363% and 93.4211% and 71.6667%
[1]; OLA 1 nano M
  percent suvival: 43.3333% and 47.9532% and 73.6842%
[1]; OLA 2 nano M
  percent suvival: 35% and 27.4854% and 32.2368%
[1]; OLA 4 nano M
  percent suvival: 17.5% and 9.357% and 9.868%

## O=C(c1cc(Cc2n[nH]c(=O)c3ccccc23)ccc1F)N1CCN(C(=O)C2CC2)CC1 [Olaparib, reference compound]
DLD1 BRCA2 -/- cells; Olaparib 1 μM, BRCA2-NULL
  Average (colonies): 0
  Percent survival: 0
DLD1 BRCA2 -/- cells; colony survival, versus BRCA2-WT
  selective killing / synthetic lethality in BRCA2-null DLD1 cells: selective killing; also recorded: induction of synthetic lethality
DLD1 Parental cells
  Average (colonies): 102.667
  Percent survival: 99.6764

## Cn1ncnc1[C@H]1c2n[nH]c(=O)c3cc(F)cc(c23)N[C@@H]1c1ccc(F)cc1 [Talazoparib]
MDA-MB-231 cells; Talazoparib 12.5 nano M, experiment block 1 (c0-c7)
  percent suvival: 83.7456%
MDA-MB-231 cells; Talazoparib 12.5 nano M, experiment block 2 (c8-c15)
  percent suvival: 90.5063%
MDA-MB-231 cells; Talazoparib 12.5 nano M, experiment block 3 (c16-c23)
  percent suvival: 79.3478%
MDA-MB-231 cells; Talazoparib 25 nano M, experiment block 1 (c0-c7)
  percent suvival: 72.4382%
MDA-MB-231 cells; Talazoparib 25 nano M, experiment block 2 (c8-c15)
  percent suvival: 53.1646%
MDA-MB-231 cells; Talazoparib 25 nano M, experiment block 3 (c16-c23)
  percent suvival: 57.0652%
MDA-MB-231 cells; Talazoparib 50 nano M, experiment block 1 (c0-c7)
  percent suvival: 24.735%
MDA-MB-231 cells; Talazoparib 50 nano M, experiment block 2 (c8-c15)
  percent suvival: 34.1772%
MDA-MB-231 cells; Talazoparib 50 nano M, experiment block 3 (c16-c23)
  percent suvival: 30.9783%

## ART-558
Polθ-pol; 0.0016 μM compound, 60 nM 469D/343-BHQRQ/486-Cy5 DNA
  raw signal, Trial 1-3: 191.03 and 186.60 and 188.77
Polθ-pol; 0.0016 μM compound, 60 nM DNA
  % Activity, Average: 85.90%
  % Activity, Trial 1-3: 80.91% and 85.80% and 91.00%
  % Inhibition, Average: 14.10%
  raw signal, Average: 188.80
Polθ-pol; 0.0049 μM compound, 60 nM DNA
  % Activity, Average: 70.18%
  % Activity, Trial 1-3: 67.33% and 75.35% and 67.85%
  % Inhibition, Average: 29.82%
  % Inhibition, Trial 1-3: 32.67% and 24.65% and 32.15%
  raw signal, Average: 168.11
  raw signal, Trial 1-3: 171.92 and 173.21 and 159.20
Polθ-pol; 0.0148 μM compound, 60 nM DNA
  % Activity, Average: 44.31%
  % Activity, Trial 1-3: 42.11% and 41.00% and 49.82%
  % Inhibition, Average: 55.69%
  % Inhibition, Trial 1-3: 57.89% and 59.00% and 50.18%
  raw signal, Average: 133.93
  raw signal, Trial 1-3: 136.44 and 129.18 and 136.16
Polθ-pol; 0.0444 μM compound, 60 nM DNA
  % Activity, Average: 20.55%
  % Activity, Trial 1-3: 21.44% and 16.79% and 23.44%
  % Inhibition, Average: 79.45%
  % Inhibition, Trial 1-3: 78.56% and 83.21% and 76.56%
  raw signal, Average: 102.66
  raw signal, Trial 1-3: 107.36 and 98.15 and 102.46
Polθ-pol; 0.1333 μM compound, 60 nM DNA
  % Activity, Average: 6.69%
  % Activity, Trial 1-3: 5.64% and 7.63% and 6.80%
  % Inhibition, Average: 93.31%
  % Inhibition, Trial 1-3: 94.36% and 92.37% and 93.20%
  raw signal, Average: 84.25
  raw signal, Trial 1-3: 85.13 and 86.41 and 81.22
Polθ-pol; 0.4000 μM compound, 60 nM DNA
  % Activity, Average: 2.48%
  % Activity, Trial 1-3: 0.51% and 1.19% and 5.76%
  % Inhibition, Average: 97.52%
  % Inhibition, Trial 1-3: 99.49% and 98.81% and 94.24%
  raw signal, Average: 78.65
  raw signal, Trial 1-3: 77.91 and 78.16 and 79.89
